In a melting point compilation (Tetko et al.; mined from patent text by program, amines drawn as free bases though some values may be those of a salt):

Compound	melting point
Cc1c(-c2ccncc2)[nH]c(-c2ccncc2)c1S(C)(=O)=O	232 to 234 °C
CNC(=O)N1c2ccccc2CC1C (stereo not drawn)	158 to 160 °C
Nc1nc(C2CCCCN2)ncc1-c1ccc(Cl)cc1Cl (stereo not drawn)	169 °C
CN1CCc2c(Cl)ccc3c4c(n(c23)CC1)CCCCC4	132 to 134 °C
O=C1Nc2ccccc2Nc2cscc21	233 to 234 °C
N#CN=C(Nc1cccnc1)NC(NC(=O)c1ccc(I)cc1)C(Cl)(Cl)Cl (stereo not drawn)	208 to 210 °C
O=C(Nc1ccc2c(c1)CN(C(=O)OCc1ccccc1)CC2)OCc1ccccc1	113 to 115 °C
CC#CCOc1ccc(S(=O)[C@@H](C(=O)NO)c2ccc(OC)cc2)cc1 (stereo partly drawn)	134 °C
Cc1noc(NS(=O)(=O)c2ccccc2-c2ccc(-c3ncco3)cc2CN2C(=O)C(F)(F)c3ccccc32)c1C	112 to 120 °C
CN(C)Cc1c(-c2ccccc2)[nH]c2nccnc12	191 to 192 °C
OCc1ccc(C2CCCc3cncn32)cc1 (stereo not drawn)	142 to 145 °C
CN1CCN(c2cc(F)cc3c(=O)cc(C(=O)Nc4ccc(N5CCN(C(=O)CCO)CC5)cc4)oc23)CC1	195 to 199 °C
CCc1nc2c(N)nc3ccccc3c2n1CCCCNC(=O)c1ccccc1	203 to 206 °C
CC(C)(NC(=O)CNC(=O)c1ccccc1)c1ccccc1	156 to 157 °C
CCOC(=O)C(=O)CC(=O)c1cn(Cc2ccc(F)cc2)c2c(F)cccc2c1=O	179 to 180 °C
CCCCc1nc2c(N)nc3cccnc3c2n1CCNC(C)=O	228 to 230 °C
COCCn1cc2c(C3C(=O)Nc4ccc(Br)cc43)nc(NCc3cccnc3)nc2n1 (stereo not drawn)	300 to 301 °C
Nc1nnc(-c2ccc(Cl)c(C(F)(F)F)c2)c(N)n1	228 to 229 °C
CC(C)Oc1ccc(-c2ccc(C#N)cc2)cc1C=O	94 to 96 °C
COc1cn(-c2ccc(OCc3ccccc3)cc2F)nc(-c2ccnn2-c2ccccc2)c1=O	181 to 183 °C
CC(c1ccccc1)C(CS)C(=O)NCC(=O)O (stereo not drawn)	129 °C
COC(=O)c1cccc2c(=O)c3cc(I)ccc3[nH]c12	224 to 226 °C
CCC(=O)On1c(=O)c(=O)[nH]c2cc(C(F)(F)F)c(C#N)cc21	227 °C
C[C@H](O)c1nnc(-c2ccc3occ(-c4cc(F)ccc4Cl)c3c2)o1	204 to 205 °C
ClCc1coc(-c2ccc(Br)o2)n1	90 to 92 °C

Compound	melting point
Nc1cccc(Cn2c(-c3ccccc3Cl)cc3ccc(Oc4cncnc4)cc32)n1	115 to 117 °C
O=P(O)(O)Cc1ccc2ccccc2c1	234 to 236 °C
O=C(N[C@H]1CC[C@@H](C(=O)Oc2ccc3c(c2)CCC3)CC1)OCc1ccccc1	68 to 69 °C
O=C(O)CNC1C2CC3CC(C2)CC1C3 (stereo not drawn)	255 °C
COC(=O)c1ccc2cc(OCC(=O)O)ccc2c1	> 285 °C
O=S(=O)(c1ccc(Cl)cc1)C(c1cc(F)ccc1F)c1cc(NCCOCCO)ncc1Cl (stereo not drawn)	113 to 115 °C
CCCCCCC(C(C)O)n1cnc(C(N)=O)c1N (stereo not drawn)	159 to 160 °C
CCCc1c(C(=O)NCc2ccc3c(Br)c(OCC(=O)OC)ccc3c2)cnn1-c1ccccc1	144 to 146 °C
COCn1cnc(N2CCc3ccccc3CC2)c(C#N)c1=O	119 to 124 °C
Cc1ccc(-n2ncc(-c3ccc(S(C)(=O)=O)cc3)c(-c3ccc(F)cc3)c2=O)cc1	190 to 192 °C
CC(C)(C)OC(=O)CN1CC(c2cccc3ccccc23)SCC(N2C(=O)c3ccccc3C2=O)C1=O (stereo not drawn)	211 to 213 °C
CN1CCC(OC(c2cccc(SCC3=NCCN3)c2)c2nc3ccccc3[nH]2)CC1 (stereo not drawn)	62 °C
NC(=O)N1C(=O)C(=C(OC(=O)C=CC(=O)O)c2cccs2)c2cc(Cl)ccc21	198 to 200 °C
Cc1ccccc1C(=O)Nc1ccc(C(=O)N2CCCC(N)c3ccccc32)cc1 (stereo not drawn)	198 to 200 °C
CS(=O)(=O)c1snc(OCC#CI)c1C#N	191 to 192 °C
COc1cc2c(c3c1OC(C)(C)C3)C(c1cccc(NC(=O)CCCCl)c1)=NC(C)(C)C2	146 to 148 °C
CC/C=C\CCCCCCCCCCOc1ccc(C(=O)O)o1	89 to 90 °C
CC(=O)SC(CC(=O)c1ccc(Oc2ccc(Cl)cc2)cc1)C(=O)O (stereo not drawn)	91 to 94 °C
O=C1N(CO)CCN1CCN1CCC(c2cn(-c3ccc(F)cc3)c3ccc(Cl)cc23)CC1	118 to 119 °C
O=C1Nc2ccccc2SC1=Cc1ccc(Cl)cc1	238 to 240 °C
CCCCCCC(=O)CCCC=O	33 to 34 °C
Cc1cc(-c2nc3cccnn3c2-c2ccnc(NC(=O)Nc3cccnc3)c2)ccc1F	233 to 234 °C
CN1CCN(C(=O)[C@H](CC(N)=O)Nc2ccc(OCc3ccccc3)cc2OCc2ccccc2)CC1	83 to 85 °C
Cc1nc2c(N)nc3ccccc3c2n1CCCCC(=O)N1CCOCC1	218 to 219 °C
O=CCN1CCc2ccc(Br)cc2C1=O	95 to 96 °C

Compound	melting point
Cc1cccc2c3c([nH]c12)CCC(N1CCCC1)C3 (stereo not drawn)	159 to 163 °C
Cc1nc(N2C[C@@H](C)N(Cc3ccc(F)cc3)C2=O)sc1C(=O)NCc1cncs1	66 to 69 °C
Cc1nn(C)c2cc(-c3ccc(F)cc3)nc(-c3ccc(S(C)(=O)=O)cc3)c12	228 to 230 °C
CCOC(=O)c1c(N2CCN(C(=O)c3cccs3)CC2)c2cccnc2n(CC(=O)c2ccccc2)c1=O	115 °C
Cn1sc(Cl)c(Cl)c1=O	119 to 120 °C
COc1ccc(N2CCN(Cc3n[nH]c4c3Cc3ccccc3-4)CC2)cc1	176 to 178 °C
CCCCc1nc(C(C)(O)CC)c(C#N)n1C(c1ccccc1)(c1ccccc1)c1ccccc1 (stereo not drawn)	90 to 93 °C
Cc1ccc(S(=O)(=O)OCCCC2(C)NC(=O)NC2=O)cc1 (stereo not drawn)	126 to 127 °C
COc1cc2c(Nc3ccc(C)c(O)c3)ncnc2cc1OCc1cccnc1	258 to 259 °C
COc1ccc(NC(=O)c2ccc([N+](=O)[O-])c(OC)c2)cc1	168 to 169 °C
CCOC(=O)OCSCC1=C(C(=O)OCC)C(c2cccc([N+](=O)[O-])c2)C(C(=O)OCC)=C(C)N1 (stereo not drawn)	83 to 85 °C
COc1ccc(N(C=C(C#N)C#N)CCC#N)cc1	175 to 177 °C
c1coc(CCCCCCOc2ccc(C3=NCCO3)cc2)c1	74 °C
Cc1cc(C)n(-c2cc(F)c(C#N)cc2F)n1	122 °C
CCOCc1nc2c(N)nc(C)c(C)c2n1CCOCc1ccccc1	107 to 108 °C
O=C(ON1C(=O)CCC1=O)c1ccc(-c2ccc(S(=O)(=O)N(CCO)CCO)cc2)[nH]c1=O	213 to 216 °C
Cc1cc(C(=O)O)c2cccc(OCc3ccccc3)c2n1	241 °C
CC(C)COC(=O)CC1CC(c2ccc(C#N)cc2)=NO1 (single isomer, unassigned; (-))	98 to 100 °C
C[C@@H]1c2cc(F)ccc2-c2ccc(F)cc2N1S(=O)(=O)c1ccc(O)cc1O	153 to 156 °C
CC(C)(C)c1cc(CCc2ccccc2NC(=O)NC2CCN(CCc3ccccc3)CC2)cc(C(C)(C)C)c1O	175 to 176 °C
CCOc1cccc(C(c2ncccc2OC)n2nc(C(=O)O)c3c2-c2ccc(OCc4cncnc4)cc2CC3)c1 (stereo not drawn)	222 to 225 °C
Cc1cc(C)c(-c2csc3c(Cl)cc(C)nc23)c(C)c1	129 to 131 °C
CCCC1CCC(c2ccc(-c3cc(F)c(C(F)(F)Oc4cc(F)c(C(F)(F)F)c(F)c4)c(F)c3)c(F)c2)CC1 (stereo not drawn)	86 °C
O=S1(=O)N=C2CCCN2c2ccc(S(=O)(=O)NC3CCCCC3)cc21	151 to 153 °C
O=C(Nc1ccc(Cl)cc1)Nc1ccc2[nH]c(C(F)(F)F)nc2c1	264 to 268 °C

Compound	melting point
COc1ccc(CN(Cc2ccc(OC)cc2)c2nc(-c3ccccc3)c(-c3ccc(=O)n(C(C)C)n3)nc2C(N)=O)cc1	120 to 122 °C
O=C(NC(=O)c1cccs1)NC1CCN(Cc2ccc3ccccc3c2)CC1	217 to 219 °C
COc1ccc(OC)c(C2OC(=O)c3c(OC)ccc(C)c32)c1 (stereo not drawn)	121 to 123 °C
Cc1nc(Cc2ccc([N+](=O)[O-])cc2)cs1	118 to 119 °C
C=CCNC(=O)c1c([Si](C)(C)C)sc2ccccc12	72 to 75 °C
CC1(C)CCN(c2cccc(-c3cnc4[nH]cc(C(=O)C(C)(C)C)c4n3)c2)C1	233 to 235 °C
O=[N+]([O-])c1ccc2nc3c(nc2c1)N1CCCCC1CO3 (stereo not drawn)	226 to 229 °C
O=C1C(Cc2ccc(Br)cc2)=C(C(F)F)C(=O)c2ccccc21	103 to 104 °C
CCOP(=O)(/C=C/c1cn(-c2ccccc2)nc1OCc1ccc(OCc2nc(/C=C/C(=O)O)oc2C)c(OC)c1)OCC	89 to 90 °C
COc1c(Cl)ccc(-c2cc(N)c(Cl)c(C(=O)NOCC3CC3)n2)c1F	164 to 166 °C
Cc1cc(NC(=O)c2cnccn2)nc(C)c1Br	206 °C
O=C(OCN1C(=O)CN(CCN2CC(=O)N(COC(=O)c3ccc4c(c3)OCO4)C(=O)C2)CC1=O)c1ccc2c(c1)OCO2	195 to 198 °C
O=C(NC1CCN(C2CCCCC2)C1)c1cc([N+](=O)[O-])cc([N+](=O)[O-])c1 (stereo not drawn)	159 to 161 °C
CCCCCCOc1cc(-c2cccc([N+](=O)[O-])c2)c(OCCCCCC)cc1-c1cccc([N+](=O)[O-])c1	126 to 127 °C
CN(C)c1cccc(CN2CC=C(c3c[nH]c4ccc(Cl)cc34)CC2)c1	193 to 195 °C
CC1(C)CN=C(c2cnc3ccccc3c2)c2ccccc2O1	134 to 135 °C
C#Cc1cc2c(=O)nc(CCCC)[nH]c2cc1F	218 °C
COc1cccc(NC(=O)c2ccccc2C(=O)O)c1	168 to 169 °C
Nc1nc2ccccc2n1-c1cccc(-c2cscc2CO)c1	106 to 108 °C
CCOP(=O)(OCC)SCc1ccc(-c2nc(S)c3cc(Br)ccc3n2)cc1	196 to 199 °C
CCN1C(=O)C(C)=C2C[C@@]3(C)C(=C[C@@H](OC)[C@H](O)[C@@H]3C)C=C21	151 to 154 °C
CC(=O)NC(=O)c1cncc([N+](=O)[O-])c1	162 to 163 °C
C[C@H](NC(c1ccccc1)(c1ccccc1)c1ccccc1)C(=O)O	154 to 155 °C
